Data on 1 molecule can be found in patent US20040067850A1, “Agricultural and horticultural composition” (priority 2001, published 2004).

The assay concerns Oat. Briefly: Gotland field trial, foliage application: manganese deficiency assessment in oat. It is filed as in vivo. Conditions: 4 kg/ha, scale 0 = no deficiency, 100 = all plants. The procedure:
Oat was grown on a location on Gotland, Sweden, with severe manganese conditions. […] The invention, MicroplanTM Manganese (150 gram manganese complex bound per liter, amino acids used were methionin and lysine, respectively), was applied to the foliage at growing stage DC 25 (early tillering). […] The same amount of manganese was applied. The assessment, shown in the table 7 below, were done one week and two weeks after application. According to the following procedure: Manganese deficiency 0-100, scale 0=no deficiency 100=all plants/leaves showing deficiency (=yellow leaves).

On to `O=S(=O)([O-])[O-].[Mn+2]` [Manganese sulphate], for which the “Manganese deficiency 0-100 (plant/leaf area with symptoms)” value (6/7-2001) is reported as 28 and the “Manganese deficiency 0-100 (plant/leaf area with symptoms)” value (16/7-2001) turned out to be 25.
